Legend:
[1] = DPPH free radical scavenging assay; format: biochemical
Experimental: The DPPH assay was used to evaluate the free radical-scavenging of chlorophyllide. Briefly, DPPH (8 mg) was dissolved in methanol (100 mL) to obtain a stock solution of 80 μg/mL. Then, 2.95 mL of the working solution was mixed with 50 μL of sample. After incubation in a dark at room temperature for 20 min, the absorbance was measured at 517 nm. The DPPH scavenging effect (%) was determined using the following formula: […]
where Ac was the absorbance of the blank control, Ai was the absorbance in the presence of the samples, and Aj was the absorbance of the samples alone. Vitamin B2 was used as a reference standard compound.

MCF7 breast cancer cells [2] = conditions: FIG. 4 comparison, MTT, 0 to 200 μg/mL
[3] = tested on: MCF7 / MDA-MB-231 breast cancer cells; experiment: Log2 fold change of target genes (Table 5, cell line and method not stated); format: cell-based, human
Experimental: The gene expression profiles of the MCF7 breast cancer cells treated with chlorophyllide or MDA-MB-231 breast cancer cells treated with chlorophyllide and the corresponding untreated cells were analyzed by using next generation sequencing (NGS).
(§1) Then, among the 50 candidate genes, CCR1, STIM2, ETNK1, RAP2B, and TOP2A were used as target genes in real-time polymerase chain reaction (RT-PCR).

MCF7 breast cancer cells [4] = experiment: Target gene expression by RT-PCR, MCF7; format: cell-based, human; conditions: MCF7 treated with chlorophyllide
Description: as §1

[5] = tested on: MDA-MB-231 breast cancer cells; experiment: Target gene expression by RT-PCR, MDA-MB-231; format: cell-based, human; conditions: MDA-MB-231 treated with chlorophyllide
Description: as §1

## Cc1cc2nc3c(=O)[nH]c(=O)nc-3n(C[C@H](O)[C@H](O)[C@H](O)CO)c2cc1C [vitamin B2]
[1]; 100 μg/mL
  DPPH scavenging rate: 28.05%

## chlorophyllin
[1]; 100 μg/mL
  DPPH scavenging rate: 25.68%
[1]; 200 μg/mL
  DPPH scavenging rate: 30.58%
[1]; 400 μg/mL
  DPPH scavenging rate: 45.34%
MCF7 breast cancer cells [2]
  IC50: 218.34 µg/mL

## chlorophyllide
[1]; 100 μg/mL
  DPPH scavenging rate: 31.01%
[1]; 200 μg/mL
  DPPH scavenging rate: 26.92%
[1]; 400 μg/mL
  DPPH scavenging rate: 26.09%
[3]; gene CCR1
  Log2 fold change, CCR1: 5.954
[3]; gene ETNK1
  Log2 fold change, ETNK1: 2.181
[3]; gene RAP2B
  Log2 fold change, RAP2B: 2.375
[3]; gene STIM2
  Log2 fold change, STIM2: 2.783
MCF7 breast cancer cells [4]; gene CCR1
  gene expression level by RT-PCR, CCR1: 6.798
MCF7 breast cancer cells [4]; gene ETNK1
  gene expression level by RT-PCR, ETNK1: 1.987
MCF7 breast cancer cells [4]; gene MAGI1
  gene expression level by RT-PCR, MAGI1: 3.126
MCF7 breast cancer cells [4]; gene NLRC5
  gene expression level by RT-PCR, NLRC5: 0.684
MCF7 breast cancer cells [4]; gene PKN1
  gene expression level by RT-PCR, PKN1: 1.167
MCF7 breast cancer cells [4]; gene RAP2B
  gene expression level by RT-PCR, RAP2B: 0.5882
MCF7 breast cancer cells [4]; gene SLC7A7
  gene expression level by RT-PCR, SLC7A7: 0.3107
MCF7 breast cancer cells [4]; gene STIM2
  gene expression level by RT-PCR, STIM2: 6.125
MCF7 breast cancer cells [4]; gene TOP2A
  gene expression level by RT-PCR, TOP2A: 1.574
[5]; gene CCR1
  gene expression level by RT-PCR, CCR1: 10.079
[5]; gene ETNK1
  gene expression level by RT-PCR, ETNK1: 5.954
[5]; gene MAGI1
  gene expression level by RT-PCR, MAGI1: 1.3977
[5]; gene NLRC5
  gene expression level by RT-PCR, NLRC5: 5.527
[5]; gene PKN1
  gene expression level by RT-PCR, PKN1: 0.5819
[5]; gene RAP2B
  gene expression level by RT-PCR, RAP2B: 3.694
[5]; gene SLC7A7
  gene expression level by RT-PCR, SLC7A7: 1.159
[5]; gene STIM2
  gene expression level by RT-PCR, STIM2: 3.5088
[5]; gene TOP2A
  gene expression level by RT-PCR, TOP2A: 11.02

## chlorophyll
[1]; 100 μg/mL
  DPPH scavenging rate: 52.95%
[1]; 200 μg/mL
  DPPH scavenging rate: 65.11%
[1]; 400 μg/mL
  DPPH scavenging rate: 88.62%
[1]; by extrapolation from regression analysis
  EC50 (concentration that can inhibit 50% of DPPH free radicals): 62.14 µg/mL
MCF7 breast cancer cells [2]
  IC50: 197.31 µg/mL
